Reference: patent US8232406B2, “c-MET protein kinase inhibitors” (Vertex Pharmaceuticals Incorporated, priority 2006, dated 2012)

Target: c-MET (Homo sapiens, UniProt P08581)
Assay: Ki determination for the inhibition of c-MET (standard radiometric 33P-ATP kinase assay, polyE4Y substrate)
Format: biochemical
Settings: 1.0 nM c-Met, 35 μM ATP, 0.5 mg/mL polyE4Y, 20 min; competitive tight-binding fit
In short: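 Radiometric assay of 33P transfer from 33P-ATP (35 μM) to polyE4Y (0.5 mg/mL) by 1.0 nM c-Met in 100 mM HEPES pH 7.5, 10 mM MgCl2, 25 mM NaCl, 0.01% BSA, 1 mM DTT. TCA-quenched after 20 min, filter-captured, scintillation-counted; Ki fitted to a competitive tight-binding model.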

Sequence of c-MET (P08581 25-1390): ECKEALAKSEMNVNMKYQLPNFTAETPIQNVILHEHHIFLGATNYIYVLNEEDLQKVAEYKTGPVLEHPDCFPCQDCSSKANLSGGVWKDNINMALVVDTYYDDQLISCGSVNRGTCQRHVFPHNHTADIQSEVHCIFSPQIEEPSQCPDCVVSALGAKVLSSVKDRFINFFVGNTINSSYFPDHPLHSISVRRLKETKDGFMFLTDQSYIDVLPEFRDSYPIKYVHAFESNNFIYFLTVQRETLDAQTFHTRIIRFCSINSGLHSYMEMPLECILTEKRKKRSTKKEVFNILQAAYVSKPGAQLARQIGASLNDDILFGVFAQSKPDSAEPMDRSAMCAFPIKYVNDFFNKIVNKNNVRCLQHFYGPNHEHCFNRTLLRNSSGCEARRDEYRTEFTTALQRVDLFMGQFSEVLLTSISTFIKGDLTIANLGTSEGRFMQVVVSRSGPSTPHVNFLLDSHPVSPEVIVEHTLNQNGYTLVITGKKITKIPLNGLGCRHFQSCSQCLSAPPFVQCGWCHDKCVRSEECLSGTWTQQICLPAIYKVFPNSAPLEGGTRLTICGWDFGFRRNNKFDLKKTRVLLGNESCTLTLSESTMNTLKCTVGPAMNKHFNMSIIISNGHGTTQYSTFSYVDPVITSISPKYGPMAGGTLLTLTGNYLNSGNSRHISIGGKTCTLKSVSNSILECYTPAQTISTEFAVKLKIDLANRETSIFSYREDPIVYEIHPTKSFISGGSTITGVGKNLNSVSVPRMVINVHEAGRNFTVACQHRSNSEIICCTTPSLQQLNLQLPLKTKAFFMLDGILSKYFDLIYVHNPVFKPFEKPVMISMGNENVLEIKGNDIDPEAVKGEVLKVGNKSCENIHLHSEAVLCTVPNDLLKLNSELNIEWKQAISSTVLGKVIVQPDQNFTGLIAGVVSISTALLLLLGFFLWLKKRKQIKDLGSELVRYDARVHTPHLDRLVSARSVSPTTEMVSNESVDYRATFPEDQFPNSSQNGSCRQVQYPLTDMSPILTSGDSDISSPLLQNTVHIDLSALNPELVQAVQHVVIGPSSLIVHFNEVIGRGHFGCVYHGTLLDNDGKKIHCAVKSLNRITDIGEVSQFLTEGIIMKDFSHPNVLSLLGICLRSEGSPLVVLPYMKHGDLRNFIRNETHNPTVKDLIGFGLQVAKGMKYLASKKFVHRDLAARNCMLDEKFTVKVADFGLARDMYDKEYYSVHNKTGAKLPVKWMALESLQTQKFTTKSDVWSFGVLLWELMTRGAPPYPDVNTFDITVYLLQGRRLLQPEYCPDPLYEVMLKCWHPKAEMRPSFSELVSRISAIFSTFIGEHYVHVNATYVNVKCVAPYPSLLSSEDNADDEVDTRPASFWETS

SMILES | Ki [nM]
Nc1ncc(-c2ccc(CN3CCCC3)c(O)c2)cc1-c1nnnn1-c1cccc(F)c1F [I-A-391] | ≤ 100
CC(=O)N1CCC(n2cc(-c3cnc(N)c(-c4nnnn4-c4cccc(F)c4Cl)c3)cn2)CC1 [I-A-392] | 100 to 1000
Nc1ncc(-c2ccc(CN3CCCC3)cc2)cc1-c1nccn1-c1cccc(Cl)c1Cl [I-A-393] | ≤ 100
Nc1ncc(-c2cnn(C3CCNCC3)c2)cc1-c1nccn1-c1cccc(Cl)c1Cl [I-A-394] | ≤ 100
Nc1ncc(-c2cnn(C3CCN(C(=O)C(F)(F)F)CC3)c2)cc1-c1nnnn1-c1cccc(F)c1Cl [I-A-395] | 100 to 1000
Nc1ncc(-c2cnn(C3CCOCC3)c2)cc1-c1nnnn1-c1cccc(F)c1F [I-A-396] | ≤ 100
Nc1ncc(-c2cnn(C3CCOCC3)c2)cc1-c1nnnn1-c1cccc(Cl)c1F [I-A-397] | ≤ 100
CC(=O)Nc1cc(-c2cnc(N)c(-c3nnnn3-c3cccc(Cl)c3F)c2)ccc1CN1CCCC1 [I-A-398] | ≤ 100
CC(=O)N1CCC(n2cc(-c3cnc(N)c(-c4nnnn4-c4cccc(Cl)c4F)c3)cn2)CC1 [I-A-399] | ≤ 100
Nc1ncc(-c2ccc(C3CCNCC3)cc2)cc1-c1nnnn1-c1cccc(F)c1F [I-A-400] | ≤ 100
Nc1ncc(-c2cccc(N3CCNCC3)c2)cc1-c1nccn1-c1cccc(Cl)c1Cl [I-A-401] | ≤ 100
CN1CCN(c2ccc(-c3cnc(N)c(-c4nccn4-c4cccc(Cl)c4Cl)c3)cc2)CC1 [I-A-402] | 100 to 1000
Nc1ncc(-c2cnn(C3CCCCC3)c2)cc1-c1nnnn1-c1cccc(F)c1F [I-A-403] | ≤ 100
Nc1ncc(-c2cnn([C@@H]3CCNC3)c2)cc1-c1nnnn1-c1cccc(F)c1F [I-A-404] | ≤ 100
Nc1ncc(-c2cnn([C@H]3CCCNC3)c2)cc1-c1nnnn1-c1cccc(F)c1F [I-A-405] | ≤ 100
CN(C)CCn1cc(-c2cnc(N)c(-c3nnnn3-c3cccc(F)c3F)c2)cn1 [I-A-406] | ≤ 100
Nc1ncc(-c2cnn(CCN3CCCC3)c2)cc1-c1nnnn1-c1cccc(F)c1F [I-A-407] | ≤ 100
Nc1ncc(-c2cnn([C@@H]3CCNC3)c2)cc1-c1nnnn1-c1cccc(Cl)c1Cl [I-A-408] | ≤ 100
Nc1ncc(-c2cnn([C@H]3CCCNC3)c2)cc1-c1nnnn1-c1cccc(Cl)c1Cl [I-A-409] | ≤ 100
CN(C)CCn1cc(-c2cnc(N)c(-c3nnnn3-c3cccc(Cl)c3Cl)c2)cn1 [I-A-410] | ≤ 100
Nc1ncc(-c2cnn(CCN3CCCC3)c2)cc1-c1nnnn1-c1cccc(Cl)c1Cl [I-A-411] | ≤ 100

SMILES | Ki [nM]
Nc1ncc(-c2cnn([C@H]3CCNC3)c2)cc1-c1nnnn1-c1cccc(F)c1F [I-A-412] | ≤ 100
Nc1ncc(-c2cnn([C@H]3CCNC3)c2)cc1-c1nnnn1-c1cccc(Cl)c1Cl [I-A-413] | ≤ 100
Nc1ncc(-c2cccc(N3CCNCC3)c2)cc1-c1nnnn1-c1cccc(F)c1F [I-A-414] | ≤ 100
Nc1ncc(-c2ccc(C3CCNCC3)s2)cc1-c1nnnn1-c1cccc(F)c1F [I-A-415] | ≤ 100
Nc1ncc(-c2ccc(C3CCNCC3)s2)cc1-c1nnnn1-c1cccc(Cl)c1Cl [I-A-416] | ≤ 100
Nc1ncc(-c2cnn([C@@H]3CCCNC3)c2)cc1-c1nnnn1-c1cccc(F)c1F [I-A-417] | ≤ 100
Nc1ncc(-c2cnn([C@@H]3CCCNC3)c2)cc1-c1nnnn1-c1cccc(Cl)c1Cl [I-A-418] | ≤ 100
Nc1ncc(-c2cnn([C@@H]3CCOC3)c2)cc1-c1nnnn1-c1cccc(F)c1F [I-A-419] | ≤ 100
Nc1ncc(-c2cnn([C@@H]3CCOC3)c2)cc1-c1nnnn1-c1cccc(Cl)c1F [I-A-420] | ≤ 100
Nc1ncc(-c2cnn([C@@H]3CCOC3)c2)cc1-c1nnnn1-c1cccc(-c2cnn([C@@H]3CCOC3)c2)c1F [I-A-421] | 100 to 1000
Nc1ncc(C2=CCN(C(=O)C3CCOC3)CC2)cc1-c1nnnn1-c1cccc(F)c1F (centres unmarked) [I-A-422] | ≤ 100
Nc1ncc(C2=CCN(C(=O)C3CCCNC3)CC2)cc1-c1nnnn1-c1cccc(F)c1F (centres unmarked) [I-A-423] | ≤ 100
Nc1ncc(C2=CCN(C3CCNCC3)CC2)cc1-c1nnnn1-c1cccc(F)c1F [I-A-424] | 100 to 1000
Nc1ncc(-c2cnn([C@H]3CCOC3)c2)cc1-c1nnnn1-c1cccc(F)c1F [I-A-425] | ≤ 100
Nc1ncc(-c2cnn(C3CNC3)c2)cc1-c1nnnn1-c1cccc(F)c1F [I-A-426] | ≤ 100
Nc1ncc(-c2cnn(C3CNC3)c2)cc1-c1nnnn1-c1cccc(Cl)c1Cl [I-A-427] | ≤ 100
Nc1ncc(-c2cnn(C3CCCNCC3)c2)cc1-c1nnnn1-c1cccc(F)c1F (centres unmarked) [I-A-428] | ≤ 100
Nc1ncc(-c2cnn(C3CCCNCC3)c2)cc1-c1nnnn1-c1cccc(Cl)c1Cl (centres unmarked) [I-A-429] | ≤ 100
Nc1ncc(-c2cc3c(s2)CCNCC3)cc1-c1nnnn1-c1cccc(F)c1F [I-A-430, 3-(1-(2,3-Difluorophenyl)-1H-tetrazol-5-yl)-5-(5,6,7,8-tetrahydro-4H-thieno[3,2-d]azepin-2-yl)pyridin-2-amine] | ≤ 100
Nc1ncc(-c2cc3c(s2)CCNCC3)cc1-c1nnnn1-c1cccc(Cl)c1Cl [I-A-431] | ≤ 100

Further lines, results first:

Ki [nM] | SMILES
≤ 100 | Nc1ncc(-c2cnn(C3COCOC3)c2)cc1-c1nnnn1-c1cccc(F)c1F [I-A-432]
≤ 100 | Nc1ncc(-c2cnn(CC3COCO3)c2)cc1-c1nnnn1-c1cccc(F)c1F (centres unmarked) [I-A-433]
≤ 100 | CN1CCC(n2cc(-c3cnc(N)c(-c4nnnn4-c4cccc(F)c4F)c3)cn2)CC1 [I-A-434]
≤ 100 | CCN1CCC(n2cc(-c3cnc(N)c(-c4nnnn4-c4cccc(F)c4F)c3)cn2)CC1 [I-A-435]
≤ 100 | CN1CCC(n2cc(-c3cnc(N)c(-c4nnnn4-c4cccc(Cl)c4F)c3)cn2)CC1 [I-A-436]
≤ 100 | Nc1ncc(-c2cnn(C3CCNCC3)c2)cc1-c1nncn1-c1cccc(Cl)c1F [I-A-438]
100 to 1000 | Nc1ncc(-c2cn[nH]c2)cc1-c1nncn1-c1cccc(Cl)c1F [I-A-439]
≤ 100 | COCCOC(=O)N1CCC(n2cc(-c3cnc(N)c(-c4nnnn4-c4cccc(Cl)c4F)c3)cn2)CC1 [I-A-440]
≤ 100 | CC(C)C(=O)N1CCC(n2cc(-c3cnc(N)c(-c4nnnn4-c4cccc(Cl)c4F)c3)cn2)CC1 [I-A-441]
≤ 100 | CN(C)S(=O)(=O)N1CCC(n2cc(-c3cnc(N)c(-c4nnnn4-c4cccc(Cl)c4F)c3)cn2)CC1 [I-A-442]
≤ 100 | Nc1ncc(-c2cnn(C3CCN(C(=O)N4CCCC4)CC3)c2)cc1-c1nnnn1-c1cccc(Cl)c1F [I-A-443]
≤ 100 | CN(C)CC(=O)N1CCC(n2cc(-c3cnc(N)c(-c4nnnn4-c4cccc(Cl)c4F)c3)cn2)CC1 [I-A-444]
≤ 100 | CN(C)C(=O)N1CCC(n2cc(-c3cnc(N)c(-c4nnnn4-c4cccc(Cl)c4F)c3)cn2)CC1 [I-A-445]
≤ 100 | CCCS(=O)(=O)N1CCC(n2cc(-c3cnc(N)c(-c4nnnn4-c4cccc(Cl)c4F)c3)cn2)CC1 [I-A-446]
≤ 100 | Nc1ncc(-c2cnn(C3CCN(C(=O)CO)CC3)c2)cc1-c1nnnn1-c1cccc(Cl)c1F [I-A-447]
≤ 100 | CC(C)N1CCC(n2cc(-c3cnc(N)c(-c4nnnn4-c4cccc(F)c4F)c3)cn2)CC1 [I-A-448]
≤ 100 | Nc1ncc(-c2cnn(C3CCN(CC4CC4)CC3)c2)cc1-c1nnnn1-c1cccc(F)c1F [I-A-449]
≤ 100 | CC(=O)N1CCC(n2cc(-c3cnc(N)c(-c4nncn4-c4cccc(Cl)c4F)c3)cn2)CC1 [I-A-450]
